Assay results published in patent EP4273147A1, “SUBSTITUTED SPIROLACTAMS, SALTS THEREOF AND THEIR USE AS HERBICIDALLY ACTIVE SUBSTANCES” (Bayer Aktiengesellschaft, priority 2022, dated 2023).

Key:
ORYZA [1] = test: Post-emergence effects on crop plants (Table F3); assay type: in vivo, Oryza sativa; settings: application rate 320 g/ha, crop plant ORYZA
Source text: (§1) 2 to 3 weeks after sowing, the test plants were sprayed in the single-leaf stage.

SETVI [2] = test: Herbicidal post-emergence action (Table B8); assay type: in vivo, Setaria viridis
Procedure, shortened: (§2)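 Sow weeds in sandy loam pots, one species each; grow in greenhouse 2–3 weeks to one-leaf stage; treat; hold ~3 weeks under optimum conditions; rate damage visually vs untreated (0–100%).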

VERPE [3] = test: Herbicidal pre-emergence action, section C (Table C11); assay type: in vivo, Veronica persica; settings: visual grading after ca. 3 weeks
SETVI [4] = test: Herbicidal pre-emergence action, section C (Table C10); assay type: in vivo, Setaria viridis; settings: application rate 320 g/ha; visual grading after ca. 3 weeks
VIOTR [5] = test: Herbicidal pre-emergence action, section C (Table C12); assay type: in vivo, Viola tricolor; settings: application rate 80 g/ha; visual grading after ca. 3 weeks
ECHCG [6] = test: Herbicidal pre-emergence action (Table A2); assay type: in vivo, Echinochloa crus-galli; settings: application rate 320 g/ha; visual grading after ca. 3 weeks
Procedure, shortened: (§3)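 Sandy loam filled the pots; weed seeds went in as paired sowings of one grass-type and one broadleaf species, then were covered with soil.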

KCHSC [7] = test: Herbicidal pre-emergence action (Table A10); assay type: in vivo, Kochia scoparia; settings: application rate 320 g/ha; visual grading after ca. 3 weeks
Procedure, shortened: as §3

AMARE [8] = test: Herbicidal pre-emergence action (Table A8); assay type: in vivo, Amaranthus retroflexus; settings: application rate 320 g/ha; visual grading after ca. 3 weeks vs untreated controls (100% = plants have died off, 0% = as control plants)
Procedure, shortened: as §3

LOLRI [9] = test: Herbicidal pre-emergence action (Table A3); assay type: in vivo, Lolium rigidum; settings: application rate 320 g/ha; visual grading after ca. 3 weeks
Procedure, shortened: as §3

VERPE [10] = test: Herbicidal post-emergence action (Table B10); assay type: in vivo, Veronica persica; settings: application rate 1280 g/ha
Procedure, shortened: as §2

GLXMA [11] = test: Post-emergence effects on crop plants (Table F4); assay type: in vivo, Glycine max; settings: crop plant GLXMA
Source text: as §1

TRZAS [12] = test: Post-emergence effects on crop plants (Table F2); assay type: in vivo, Triticum aestivum; settings: application rate 320 g/ha, crop plant TRZAS
Source text: as §1

POAAN [13] = test: Herbicidal pre-emergence action (Table A7); assay type: in vivo, Poa annua; settings: application rate 320 g/ha; visual grading after ca. 3 weeks
Procedure, shortened: as §3

LOLRI [14] = test: Herbicidal pre-emergence action, section C (Table C7); assay type: in vivo, Lolium rigidum; settings: application rate 320 g/ha; visual grading after ca. 3 weeks
DIGSA [15] = test: Herbicidal pre-emergence action, section C (Table C5); assay type: in vivo, Digitaria sanguinalis; settings: application rate 80 g/ha; visual grading after ca. 3 weeks
ALOMY [16] = test: Herbicidal pre-emergence action (Table A9); assay type: in vivo, Alopecurus myosuroides; settings: application rate 1280 g/ha; visual grading after ca. 3 weeks
Procedure, shortened: as §3

VERPE [17] = test: Herbicidal pre-emergence action (Table A11); assay type: in vivo, Veronica persica; settings: application rate 1280 g/ha; visual grading after ca. 3 weeks
Procedure, shortened: as §3

MATIN [18] = test: Herbicidal pre-emergence action (Table A4); assay type: in vivo, Matricaria inodora; settings: visual grading after ca. 3 weeks
Procedure, shortened: as §3

DIGSA [19] = test: Herbicidal post-emergence action (Table B12); assay type: in vivo, Digitaria sanguinalis; settings: application rate 1280 g/ha
Method: (§4) Seeds of mono- and dicotyledonous weed plants were placed in plastic pots in sandy loam soil (doubly sown with in each case one species of mono- or dicotyledonous weed plants per pot), covered with soil and cultivated in a greenhouse under controlled growth conditions. 2 to 3 weeks after sowing, the test plants were treated at the one-leaf stage. […] After the test plants had been kept in the greenhouse under optimum growth conditions for about 3 weeks, the activity of the preparations was rated visually in comparison to untreated controls. For example, 100% activity = the plants have died, 0% activity = like control plants.

ZEAMX [20] = test: Post-emergence effects on crop plants (Table F1); assay type: in vivo, Zea mays; settings: application rate 320 g/ha, crop plant ZEAMX
Source text: as §1

MATIN [21] = test: Herbicidal pre-emergence action, section C (Table C8); assay type: in vivo, Matricaria inodora; settings: application rate 320 g/ha; visual grading after ca. 3 weeks
DIGSA [22] = test: Herbicidal pre-emergence action (Table A12); assay type: in vivo, Digitaria sanguinalis; settings: application rate 320 g/ha; visual grading after ca. 3 weeks
Procedure, shortened: as §3

ABUTH [23] = test: Herbicidal post-emergence action (Table B1); assay type: in vivo, Abutilon theophrasti; settings: treated at one-leaf stage, rated visually after about 3 weeks vs untreated controls (100% = plants have died, 0% = like control plants)
Procedure, shortened: as §2

AMARE [24] = test: Herbicidal pre-emergence action, section C (Table C3); assay type: in vivo, Amaranthus retroflexus; settings: application rate 320 g/ha; visual grading after ca. 3 weeks
Source text: (§5) Seeds of mono- and dicotyledonous weed plants and crop plants were sown, in plastic or organic planting pots, in sandy loam and covered with soil. The compounds according to the invention, formulated in the form of wettable powders (WP) or as emulsifiable concentrates (EC), were applied to the surface of the covering soil as aqueous suspension or emulsion, with the addition of 0.5% of an additive, at an application rate of 600 1 of water/ha (converted). Following treatment, the pots were placed in a greenhouse and kept under optimum growth conditions for the test plants.

ORYZA [25] = test: Pre-emergence effects on crop plants (Table D3); settings: crop plant; application rate 80 g/ha; visual grading after ca. 3 weeks
STEME = test: Herbicidal pre-emergence action (Table A6); assay type: in vivo, Stellaria media; settings: application rate 320 g/ha; visual grading after ca. 3 weeks
Procedure, shortened: as §3

ABUTH [26] = test: Herbicidal pre-emergence action (Table A1); assay type: in vivo, Abutilon theophrasti; settings: visual grading after ca. 3 weeks vs untreated controls (100% = plants have died off, 0% = as control plants)
Procedure, shortened: as §3

ALOMY [27] = test: Herbicidal pre-emergence action, section C (Table C2); assay type: in vivo, Alopecurus myosuroides; settings: visual grading after ca. 3 weeks
POAAN [28] = test: Herbicidal post-emergence action (Table B7); assay type: in vivo, Poa annua; settings: application rate 1280 g/ha
Procedure, shortened: as §2

AMARE [29] = test: Herbicidal post-emergence action (Table B11); assay type: in vivo, Amaranthus retroflexus; settings: application rate 1280 g/ha
Procedure, shortened: as §2

ECHCG [30] = test: Herbicidal post-emergence action (Table B3); assay type: in vivo, Echinochloa crus-galli; settings: rated visually after about 3 weeks
Procedure, shortened: as §2

ZEAMX [31] = test: Pre-emergence effects on crop plants (Table D1); assay type: in vivo, Zea mays; settings: crop plant; application rate 80 g/ha; visual grading after ca. 3 weeks
ECHCG [32] = test: Herbicidal pre-emergence action, section C (Table C6); assay type: in vivo, Echinochloa crus-galli; settings: application rate 80 g/ha; visual grading after ca. 3 weeks
POLCO = test: Herbicidal pre-emergence action, section C (Table C9); assay type: in vivo, Polygonum convolvulus; settings: application rate 80 g/ha; visual grading after ca. 3 weeks
Source text: as §5

KCHSC [33] = test: Herbicidal post-emergence action (Table B4); assay type: in vivo, Kochia scoparia; settings: application rate 1280 g/ha; rated visually after about 3 weeks
Method: as §4

ABUTH [34] = test: Herbicidal pre-emergence action, section C (Table C1); assay type: in vivo, Abutilon theophrasti; settings: application rate 80 g/ha; visual grading after ca. 3 weeks
SETVI [35] = test: Herbicidal pre-emergence action (Table A5); assay type: in vivo, Setaria viridis; settings: visual grading after ca. 3 weeks
Procedure, shortened: as §3

MATIN [36] = test: Herbicidal post-emergence action (Table B6); assay type: in vivo, Matricaria inodora; settings: application rate 1280 g/ha; rated visually after about 3 weeks
Procedure, shortened: as §2

GLXMA [37] = test: Pre-emergence effects on crop plants (Table D4); assay type: in vivo, Glycine max; settings: crop plant; application rate 320 g/ha; visual grading after ca. 3 weeks
Source text: Seeds of mono- and dicotyledonous weed plants and crop plants were sown, in plastic or organic planting pots, in sandy loam and covered with soil. The compounds according to the invention, formulated in the form of wettable powders (WP) or as emulsifiable concentrates (EC), were applied to the surface of the covering soil as aqueous suspension or emulsion, with the addition of 0.5% of an additive, at an application rate of 600 1 of water/ha (converted).
Following treatment, the pots were placed in a greenhouse and kept under optimum growth conditions for the test plants.

ABUTH [38] = test: Herbicidal post-emergence action, section E (Table E1); assay type: in vivo, Abutilon theophrasti; settings: application rate 320 g/ha; assessed visually after ca. 3 weeks
Source text: as §1

VERPE [39] = test: Herbicidal post-emergence action, section E (Table E9); assay type: in vivo, Veronica persica; settings: application rate 320 g/ha; assessed visually after ca. 3 weeks
Source text: as §1

TRZAS [40] = test: Pre-emergence effects on crop plants (Table D2); assay type: in vivo, Triticum aestivum; settings: crop plant; application rate 80 g/ha; visual grading after ca. 3 weeks
LOLRI [41] = test: Herbicidal post-emergence action (Table B5); assay type: in vivo, Lolium rigidum; settings: application rate 1280 g/ha; rated visually after about 3 weeks
Procedure, shortened: as §2

VIOTR [42] = test: Herbicidal post-emergence action, section E (Table E10); assay type: in vivo, Viola tricolor; settings: application rate 320 g/ha; assessed visually after ca. 3 weeks
Source text: as §1

Row | pre-emergence activity against ORYZA (ORYZA [25]) [%] | pre-emergence activity against ZEAMX (ZEAMX [31]) [%] | SMILES | post-emergence activity against ORYZA (ORYZA [1]) [%] | pre-emergence activity against SETVI (SETVI [4]) [%] | pre-emergence activity against VIOTR (VIOTR [5]) [%] | pre-emergence activity against ECHCG (ECHCG [6]) [%] | pre-emergence activity against KCHSC (KCHSC [7]) [%] | pre-emergence activity against LOLRI (LOLRI [9]) [%] | post-emergence activity against TRZAS (TRZAS [12]) [%] | pre-emergence activity against POAAN (POAAN [13]) [%] | pre-emergence activity against LOLRI (LOLRI [14]) [%] | pre-emergence activity against DIGSA (DIGSA [15]) [%] | pre-emergence activity against ALOMY (ALOMY [16]) [%] | pre-emergence activity against VERPE (VERPE [17]) [%] | post-emergence activity against ZEAMX (ZEAMX [20]) [%] | pre-emergence activity against MATIN (MATIN [21]) [%] | pre-emergence activity against DIGSA (DIGSA [22]) [%] | pre-emergence activity against STEME (STEME) [%] | post-emergence activity against MATIN (MATIN [36]) [%] | also measured
1 | 0 | 0 | O=C1N(Cc2ccccc2F)CCCC12CCN(Cc1cccc(F)c1F)C2=O (racemic) [I-016] | 0 | 100 | 90 | 100 | 90 | 100 | 0 | 100 | 100 | 100 | 90 | 90 | 0 | 90 | 100 | 90 | 90 | post-emergence activity against SETVI (SETVI [2]; application rate 320 g/ha): 90%; pre-emergence activity against VERPE (VERPE [3]; application rate 320 g/ha): 90%; pre-emergence activity against AMARE (AMARE [8]): 90%; post-emergence activity against VERPE (VERPE [10]): 90%; post-emergence activity against GLXMA (GLXMA [11]; application rate 80 g/ha): 0%; pre-emergence activity against MATIN (MATIN [18]; application rate 320 g/ha): 90%; post-emergence activity against DIGSA (DIGSA [19]): 90%; post-emergence activity against ABUTH (ABUTH [23]; application rate 320 g/ha): 90%; pre-emergence activity against AMARE (AMARE [24]): 90%; pre-emergence activity against ABUTH (ABUTH [26]; application rate 320 g/ha): 90%; pre-emergence activity against ALOMY (ALOMY [27]; application rate 80 g/ha): 90%; post-emergence activity against POAAN (POAAN [28]): 90%; post-emergence activity against AMARE (AMARE [29]): 90%; post-emergence activity against ECHCG (ECHCG [30]; application rate 320 g/ha): 90%; pre-emergence activity against ECHCG (ECHCG [32]): 100%; pre-emergence activity against POLCO (POLCO): 90%; post-emergence activity against KCHSC (KCHSC [33]): 90%; pre-emergence activity against ABUTH (ABUTH [34]): 80%; pre-emergence activity against SETVI (SETVI [35]; application rate 320 g/ha): 100%
2 | 0 | 0 | O=C1N(Cc2c(F)cccc2F)CCCC12CCN(Cc1c(F)cccc1F)C2=O (racemic) [I-037] | 0 | 100 | 90 | 100 | 90 | 100 | 0 | 100 | 100 | 100 | 90 | 90 | 0 | 80 | 100 | 90 | 90 | pre-emergence activity against GLXMA (GLXMA [37]): 20%; post-emergence activity against SETVI (SETVI [2]; application rate 1280 g/ha): 90%; pre-emergence activity against VERPE (VERPE [3]; application rate 80 g/ha): 90%; post-emergence activity against GLXMA (GLXMA [11]; application rate 320 g/ha): 0%; post-emergence activity against ABUTH (ABUTH [38]): 80%; pre-emergence activity against MATIN (MATIN [18]; application rate 1280 g/ha): 90%; post-emergence activity against VERPE (VERPE [39]): 80%; pre-emergence activity against TRZAS (TRZAS [40]): 0%; post-emergence activity against ABUTH (ABUTH [23]; application rate 1280 g/ha): 90%; pre-emergence activity against ABUTH (ABUTH [26]; application rate 1280 g/ha): 100%; pre-emergence activity against ALOMY (ALOMY [27]; application rate 320 g/ha): 100%; post-emergence activity against LOLRI (LOLRI [41]): 90%; post-emergence activity against ECHCG (ECHCG [30]; application rate 1280 g/ha): 90%; post-emergence activity against VIOTR (VIOTR [42]): 80%; pre-emergence activity against SETVI (SETVI [35]; application rate 1280 g/ha): 100%
